Drawing on ChEMBL document CHEMBL3507680, “University of Dundee, Gates Library screen for HepG2 cell viability”, this text covers cytotoxicity for 100 molecules.

The structures appear in SMILES notation.

This series is described as follows: Human HepG2 cell viability assay in 384 well format. The format is toxicity, cell-based. On the set-up: dose 125 nL, time 70.5 hour; concentration not given beside the values. As to conditions: HepG2 cells, read-out: Inhibition.
`O=C(NC[C@H]1OC[C@@H]2CN(Cc3ccco3)CC[C@@H]21)c1cccnc1`: the cytotoxicity at 70.5 h stood at 6.02%.
As for `O=C(O)CC[C@@H]1CN(c2ncnc3[nH]ccc23)CC[C@@H]1N1CCOCC1`, the cytotoxicity at 70.5 h was -4.6%.
On to `CCc1nnc2n1CCN(C(=O)C(C)COCc1ccccc1)C2` (stereo not given), for which the cytotoxicity at 70.5 h is -9.75%.
Regarding `COC(=O)c1sccc1S(=O)(=O)N1CCC(Oc2ncccc2Cl)CC1`, the cytotoxicity at 70.5 h was 2.59%.
To `CN(C)C(=O)C1OC2(CCN(C(=O)c3ccoc3)CC2)c2ccccc21` (stereo not given) belongs -14.7%; to `Cn1cnnc1C1CCCN1C(=O)Nc1cccc(OC(F)F)c1` (stereo not given), -1.48%; to `Cc1nc(N)sc1C(=O)N1Cc2ccccc2OC2(CCOCC2)C1`, 31.2%.
To `COC(=O)C(NC(=O)COC1CCCCC1)c1ccccc1` (stereo not given) belongs 5.11%.
Consider `Fc1cnc(N2CCOCC3(CCCN(c4nncs4)C3)C2)nc1` (stereo not given), for which the cytotoxicity at 70.5 h is -19.9%.
To `O=c1c(CN2CCOCC2)coc2ccc(Cl)cc12` belongs -8.39%.
Turning to `CC(C)CC(O)C1CCN(C(=O)c2ccc(C(C)C)[nH]c2=O)CC1` (stereo not given), the cytotoxicity at 70.5 h was 18.9%.
Turning to `COCCNC(=O)[C@H]1C[C@@H]2CCN(CCc3ccccc3)C[C@@H]2O1`, the cytotoxicity at 70.5 h is -4.71%.
With `O=C(Nc1nc2c(s1)CN(S(=O)(=O)C1CC1)CC2)c1ccc(Cl)s1` the figure was -11.1%; with `O=C(Nc1cccc(CN2CCOC2=O)c1)N1CCSCC1`, -10.5%.
With `N#CC1=C(N)Nn2c(nnc2-c2ccccc2F)S1` the figure was -36.2%.
Take `c1cncc(COC2COC3(CCN(c4cnccn4)CC3)C2)c1` (stereo not given): the cytotoxicity at 70.5 h is 15.1%.
Consider `Cc1cnn(C2CN(CC(=O)NCC(C)C)C2)c1`, for which the cytotoxicity at 70.5 h is -13.6%.
Regarding `CCN(Cc1ccc(N(C)C)cc1)S(=O)(=O)c1cc(Br)ccc1OC`, the cytotoxicity at 70.5 h was -1.59%.
Regarding `O=C1OCC(CO)N1Cc1cccc(Cl)c1F` (stereo not given), the cytotoxicity at 70.5 h amounted to 26.5%.
With `Cc1nnc(NCC2(c3ccccc3)CC2)c(C#N)c1C` the figure was -0.882%; with `Cc1ccn(-c2ccccc2NCc2cccnc2)n1`, 5.47%; with `Cc1csc(NC(=O)Cn2nc(C)ccc2=O)n1`, -9.42%.
In the case of `CCn1ccnc1CN1CCN(C(C)C(=O)NCC(F)(F)F)CC1` (stereo not given), the cytotoxicity at 70.5 h was determined as 10%.
As for `Cc1cccnc1CNc1cc(N2CCCC2CO)ncn1` (stereo not given), the cytotoxicity at 70.5 h was -8.44%.
With `COc1ccc(CN(C)CC2CCCN2c2cccnn2)cc1F` (stereo not given) the figure was 44.2%.
Consider `CN1CC(c2ccccc2)CC12CCN(C(=O)c1ccc(F)cc1)CC2` (stereo not given), for which the cytotoxicity at 70.5 h was -4.24%.
To `Cc1cnc(CNC(=O)C[C@@H]2COC[C@H]3CN(C4CCC4)C[C@@H]23)cn1` belongs 25.6%; to `CCCn1ncc(C(=O)NCCc2[nH]nc3c2CCCC3)c1C`, -5.62%; to `Cn1c(C2CC2)nc2c1CCN(CCOc1ccc(C#N)cc1)C2`, -9.07%.
With `COCCC(=O)Nc1nc2c(OC)cc(F)cc2s1` the figure was -4.65%.
Turning to `Cc1cc(CN2CCCC(c3cc(C(F)(F)F)[nH]n3)C2)no1` (stereo not given), the cytotoxicity at 70.5 h is -15.8%.
Take `CC(C)(C)n1cc(C#N)cc1NC(=O)CCNC(=O)c1ccco1`: the cytotoxicity at 70.5 h amounted to 11.3%.
With `CCc1cnc(N)nc1NC(C)c1cnn(C)c1` (stereo not given) the figure was -5.96%; with `CCc1noc(C(C)N(C)CC(=O)Nc2cccc(C)c2C)n1` (stereo not given), 20.2%; with `Cc1noc([C@@H]2C[C@H]3OCC[C@H]3N(S(=O)(=O)N(C)C)C2)n1`, -0.423%.
For the molecule `Cc1ccc(CN2CC[C@H]3C[C@H](C(=O)N(C)C)O[C@H]3C2)cc1`, the cytotoxicity at 70.5 h was -17.2%.
With `CCn1c(C2CCNCC2)nn(CCn2cncn2)c1=O` the figure was -6.69%.
To `CN1CCCC1CNC(=O)CCCOc1ccc(Cl)cc1` (stereo not given) belongs -2.04%.
To `O=C(COCC(F)(F)F)NC1CCCc2cc(OC(F)F)ccc21` (stereo not given) belongs -6.74%.
With `O=C(NS(=O)(=O)c1cccnc1)C1CC(c2ccccc2)=NO1` (stereo not given), the cytotoxicity at 70.5 h was -4.92%.
Turning to `Cn1ccnc1CN1C[C@@H](CN2CCCCC2)[C@@H](CO)C1`, the cytotoxicity at 70.5 h is -6.64%.
For the molecule `COCCn1ccc(NCc2scnc2C)n1`, the cytotoxicity at 70.5 h is -8.55%.
For the molecule `Cc1ccc(S(=O)(=O)NC2=NCN(CCc3cccs3)CN2)cc1`, the cytotoxicity at 70.5 h is -14.3%.
Turning to `CC(C)Oc1ncccc1CNC(=O)c1ccccn1`, the cytotoxicity at 70.5 h is -2.17%.
For the molecule `O=C(N1CCC(OCc2ccccn2)CC1)C1(c2ccc(F)cc2)CC1`, the cytotoxicity at 70.5 h was -0.41%.
For `Cc1noc(C)c1C(=O)NCC(O)c1ccc(F)cc1F` (stereo not given), the cytotoxicity at 70.5 h came to 27.1%.
With `CC(C)COc1cncc(NCCc2nnc3ccccn23)n1` the figure was -4.15%.
To `CNC(=O)C1Cn2ccnc2C2(CCN(CCF)CC2)O1` (stereo not given) belongs -13.9%; to `COc1ccc(CCCN2C(=O)O[C@@H]3CN(C4CCOCC4)C[C@@H]32)cc1`, -3.64%.
With `CC(=O)NCc1ccc(-n2ccnc2C)nc1` the figure was -14.4%.
Take `CC(C)(CO)N1CCN(S(=O)(=O)CCCF)CC1`: the cytotoxicity at 70.5 h is -8.05%.
With `CCC(C)Oc1cc(C(=O)Nc2nccs2)ccn1` (stereo not given) the figure was 0.776%; with `Cc1[nH]c2nc(CNc3cccc(Cl)c3)nn2c(=O)c1C`, -11.7%.
To `Cc1cc(NC(=O)CN(c2ccccc2)C(C)C)on1` belongs 0.413%; to `CCC(C)(NCC(=O)Nc1ccccc1)c1nc(C)cs1` (stereo not given), -4.87%; to `Cc1occc1C(=O)N1C[C@@H]2OCCN(CCN3CCCC3)[C@@H]2C1`, -3.12%.
`Cc1ccccc1-n1cnnc1SCC(=O)NCC1CCCO1` (stereo not given): the cytotoxicity at 70.5 h is -8.74%.
Turning to `Cc1oncc1C(=O)N1CC[C@H]2[C@H](C[C@@H](CN3CCCC3)N2C)C1`, the cytotoxicity at 70.5 h is -2.32%.
To `Cc1cc(CN(C)C(=O)C(c2ccccc2)N2CCSCC2)no1` (stereo not given) belongs 8.49%; to `CCN(CC1COc2ccccc2O1)C(=O)NCCCn1cncn1` (stereo not given), -10.8%.
Consider `CCC(=O)N(c1ccc(C(=O)OC)cc1C)C(C)C`, for which the cytotoxicity at 70.5 h is -3.07%.
To `CCN1CCOC(CNc2nccc(C(F)(F)F)n2)C1` (stereo not given) belongs -6.79%; to `CC(C(=O)NCC(F)(F)F)N1CCC(N2CCN(C)C2=O)CC1` (stereo not given), -8.46%.
For the molecule `COc1cccc(CN2CCC3(CC2)CCN(C(=O)[C@@H]2CCCO2)C3)c1`, the cytotoxicity at 70.5 h was -8.83%.
With `Cn1nc2c(cc1=O)CN(Cc1coc(-c3ccccc3)n1)CC2`, the cytotoxicity at 70.5 h was found to be 0.822%.
To `COCCCN(C)C(=O)c1cccc(Nc2cnccn2)c1` belongs 24.1%.
With `CC1CCN(c2cc(NC(=O)C3CC3)ncn2)CC1` the figure was 0.806%; with `Cn1ccnc1CN1CCN(CC(O)c2ccco2)CC1` (stereo not given), -25.9%.
On to `O=C(C[S+]([O-])c1ccc(F)c(F)c1)NCc1cc(F)cc(F)c1` (stereo not given), for which the cytotoxicity at 70.5 h was -2.62%.
With `CN1CCN(c2ccc(Br)cc2NC(=O)c2ccco2)CC1` the figure was 2.12%; with `CC(C)c1nc2n(n1)CC(NCc1nnc(C3CC3)o1)CC2` (stereo not given), 0.876%.
To `Cc1ccc(CN2Cc3nnn(C)c3C(COCc3ccccn3)C2)s1` (stereo not given) belongs -0.991%; to `COc1ccccc1CNC(=O)CNCCn1cc(C)cn1`, -13.5%; to `CNC(=O)C1(c2cnccn2)CCCN1C(=O)c1ncccc1C` (stereo not given), -5.43%.
As for `CN(C)CCn1c2c(ccc1=O)CC(NC(=O)c1ccsc1)CC2` (stereo not given), the cytotoxicity at 70.5 h turned out to be 11.3%.
To `COCC(O)CN1CCC(NC(=O)c2cscc2C)CC1` (stereo not given) belongs 3.56%; to `O=S(=O)(NCCCn1cncn1)c1ccc2c(c1)CCC2`, -5.6%.
`COCC1CC2(CCN(C(=O)c3ccc(OC)c(Cl)c3)CC2)CO1` (stereo not given): the cytotoxicity at 70.5 h is -8.41%.
With `CC(C)CN1CCCC1c1ccc(C(=O)Nc2cc[nH]n2)s1` (stereo not given) the figure was -0.844%; with `CC(NC(N)=O)C(=O)NCc1cc(Br)ccc1F` (stereo not given), -7.15%.
Turning to `CN(Cc1ccc(F)cc1)C(=O)CN1CCCC(Cn2cncn2)C1` (stereo not given), the cytotoxicity at 70.5 h is 3.89%.
With `Cc1nn(C)c(Cl)c1C1CCCN1C(=O)c1ccoc1C` (stereo not given) the figure was -4.13%; with `Cc1ccsc1CN1CCc2nc3ccsc3c(=O)n2CC1`, -4.51%; with `O=C(NCc1nncn1C1CCCCC1)C1COc2ccccc2O1` (stereo not given), -7.82%.
`CCn1cc(CN2CCCC(c3[nH]ncc3-c3ccc(C)cc3)C2)cn1` (stereo not given): the cytotoxicity at 70.5 h was -16.8%.
To `Cn1cc(CN2CCn3cc(Cn4cccn4)nc3C2)cn1` belongs 44.1%; to `CCOc1ccccc1C(=O)N(C)C(C)c1ccc(S(C)(=O)=O)cc1` (stereo not given), -6.38%; to `CCc1nc(CN2CCCC2c2c(C)nn(C)c2OC)no1` (stereo not given), -3.81%.
To `CN1CC(C(=O)N2CCC(Oc3ccccc3Cl)CC2)CC1=O` (stereo not given) belongs -1.46%; to `N#Cc1cccc(NC2CC(=O)N(Cc3ccccc3Cl)C2)n1` (stereo not given), 18.9%.
`COCc1cncc2c1CCN(C(=O)c1cscn1)C2`: the cytotoxicity at 70.5 h worked out at 20.4%.
With `Cn1nc2c(cc1=O)CN(CCc1nc3ccccc3c(=O)[nH]1)CC2` the figure was 1.45%.
To `Cc1cc2ncc(CN(C)C)c(C3CCN(C)CC3)n2n1` belongs 13.7%; to `Cc1cc(C(=O)NS(=O)(=O)Cc2ccon2)c(C)o1`, -3.93%; to `Cc1ccc(CC(=O)N2CSCC2C(=O)N(C)Cc2ccco2)o1` (stereo not given), -12.2%.
With `Cn1cnc(S(=O)(=O)N2CC3(CCN(Cc4ccncc4)C3)C2)c1` the figure was -6.66%; with `N#Cc1ccc(OC2CCN(C(=O)COCC3CCCO3)CC2)cc1` (stereo not given), -9.76%.
Take `Cc1ccoc1C(=O)NC(CC(C)C)C(=O)N1CCC(CO)CC1` (stereo not given): the cytotoxicity at 70.5 h is 27.4%.
To `Cc1cnn(CC(C)NCc2csc(-c3ncccn3)n2)c1` (stereo not given) belongs -2.17%; to `COc1ccccc1N1CCN(C(=O)Cn2nc(C)c(Cl)c2C)CC1`, 11.3%.
